Tests used:
Assay type in all cases: biochemical
Conditions in all cases: recombinant human kinase, 1 μM ATP
[1] = biological target: T1, IGF-1 R (Homo sapiens, UniProt P08069); test: 33PanQinase protein kinase activity assay, IGF-1 R
T1 construct: made in house; host or cells: Sf9 insect cells (baculovirus)
Method: (§1) The effect of the farazanopyrazine derivatives was tested on recombinant, human protein kinases. All protein kinases were expressed in Sf9 insect cells as human recombinant GST-fusion proteins or as His-tagged proteins by means of the baculovirus expression system. Protein kinases were purified by affinity chromatography using either GSH-agarose or Ni-NTH-agarose. The purity and identity of each was checked by SDS-PAGE/silver staining and by western blot analysis with specific antibodies.
(§2) A proprietary protein kinase assay (^33 PanQinase® Activity Assay) was used for measuring the kinase activity. All kinase assays were performed in 96-well FlashPlates™ in a 50 μl reaction volume. The assay for all enzymes contained 60 mM HEPES-NaOH, pH 7.5, 3 mM MgCl2, 3 mM MnCl2, 3 μM Na-orthovanadate, 1.2 mM DTT, 50 μg/ml PEG20000 and 1 μM [γ-^33P]-ATP (approx. 5×10^5 cpm per well).
(§3) The reaction cocktails were incubated at 30° C. for 80 minutes. The reaction was stopped with 50 μl of 2% (v/v) H3PO4, plates were aspirated and washed two times with 200 μl of 0.9% (w/v) NaCl. Incorporation of 33Pi was determined with a microplate scintillation counter. All assays were performed with a BeckmanCoulter/Sagian robotic system.

[2] = biological target: T2, VEGF-R2 (Homo sapiens, UniProt P35968); test: 33PanQinase protein kinase activity assay, VEGF-R2
T2 construct: made in house; host or cells: Sf9 insect cells (baculovirus)
Method: as §1, §2, §3

[3] = biological target: T3, SRC kinase (Homo sapiens, UniProt P12931); test: 33PanQinase protein kinase activity assay, SRC
T3 construct: made in house; host or cells: Sf9 insect cells (baculovirus)
Method: as §1, §2, §3

T3 sequence (P12931 whole entry): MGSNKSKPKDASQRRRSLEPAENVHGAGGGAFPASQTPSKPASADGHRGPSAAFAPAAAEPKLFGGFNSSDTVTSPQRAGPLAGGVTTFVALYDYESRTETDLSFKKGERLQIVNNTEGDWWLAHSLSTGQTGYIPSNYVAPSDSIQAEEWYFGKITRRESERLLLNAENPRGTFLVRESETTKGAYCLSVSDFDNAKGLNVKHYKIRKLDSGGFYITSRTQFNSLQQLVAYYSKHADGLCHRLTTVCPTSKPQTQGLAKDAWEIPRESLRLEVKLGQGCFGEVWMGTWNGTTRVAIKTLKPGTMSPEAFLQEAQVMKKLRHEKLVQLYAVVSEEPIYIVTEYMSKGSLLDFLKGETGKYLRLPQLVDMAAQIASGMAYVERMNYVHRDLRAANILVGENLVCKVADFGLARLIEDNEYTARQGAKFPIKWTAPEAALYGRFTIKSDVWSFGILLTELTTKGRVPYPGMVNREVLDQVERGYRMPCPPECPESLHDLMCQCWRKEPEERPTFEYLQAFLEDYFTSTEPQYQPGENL
T2 sequence (P35968 20-1356): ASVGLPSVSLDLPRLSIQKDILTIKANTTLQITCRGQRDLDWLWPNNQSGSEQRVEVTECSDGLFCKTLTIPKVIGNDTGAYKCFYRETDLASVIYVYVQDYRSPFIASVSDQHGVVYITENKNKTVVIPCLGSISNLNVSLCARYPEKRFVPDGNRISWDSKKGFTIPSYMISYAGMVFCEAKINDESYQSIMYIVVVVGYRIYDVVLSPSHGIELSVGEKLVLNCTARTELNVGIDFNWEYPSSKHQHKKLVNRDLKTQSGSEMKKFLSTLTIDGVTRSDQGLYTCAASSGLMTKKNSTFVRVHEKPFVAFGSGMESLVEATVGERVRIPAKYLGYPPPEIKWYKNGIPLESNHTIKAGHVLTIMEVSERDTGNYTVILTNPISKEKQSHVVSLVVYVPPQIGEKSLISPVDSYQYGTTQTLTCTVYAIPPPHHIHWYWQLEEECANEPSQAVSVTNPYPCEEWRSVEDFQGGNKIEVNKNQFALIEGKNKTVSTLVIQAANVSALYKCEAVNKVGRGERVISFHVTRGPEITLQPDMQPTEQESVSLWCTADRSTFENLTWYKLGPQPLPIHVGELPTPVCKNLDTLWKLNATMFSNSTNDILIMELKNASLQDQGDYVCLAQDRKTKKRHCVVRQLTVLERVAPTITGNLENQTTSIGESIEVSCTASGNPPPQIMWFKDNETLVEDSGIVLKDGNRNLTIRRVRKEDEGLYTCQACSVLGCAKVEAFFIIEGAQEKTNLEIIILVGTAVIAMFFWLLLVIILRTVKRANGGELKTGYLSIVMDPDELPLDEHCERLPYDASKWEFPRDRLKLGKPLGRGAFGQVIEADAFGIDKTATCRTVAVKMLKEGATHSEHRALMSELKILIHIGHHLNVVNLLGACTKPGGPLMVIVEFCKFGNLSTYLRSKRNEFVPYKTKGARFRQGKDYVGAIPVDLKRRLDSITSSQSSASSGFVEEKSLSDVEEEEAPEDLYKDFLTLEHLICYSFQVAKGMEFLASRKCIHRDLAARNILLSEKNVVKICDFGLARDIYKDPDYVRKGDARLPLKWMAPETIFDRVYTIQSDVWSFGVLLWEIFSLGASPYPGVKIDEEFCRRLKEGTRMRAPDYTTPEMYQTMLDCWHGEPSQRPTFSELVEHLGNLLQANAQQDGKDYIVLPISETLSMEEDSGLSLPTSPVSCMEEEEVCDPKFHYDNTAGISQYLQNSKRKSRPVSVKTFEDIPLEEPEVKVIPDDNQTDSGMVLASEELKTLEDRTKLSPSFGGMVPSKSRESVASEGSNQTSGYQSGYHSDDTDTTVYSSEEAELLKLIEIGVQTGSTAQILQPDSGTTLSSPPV
T1 sequence (P08069 31-1367): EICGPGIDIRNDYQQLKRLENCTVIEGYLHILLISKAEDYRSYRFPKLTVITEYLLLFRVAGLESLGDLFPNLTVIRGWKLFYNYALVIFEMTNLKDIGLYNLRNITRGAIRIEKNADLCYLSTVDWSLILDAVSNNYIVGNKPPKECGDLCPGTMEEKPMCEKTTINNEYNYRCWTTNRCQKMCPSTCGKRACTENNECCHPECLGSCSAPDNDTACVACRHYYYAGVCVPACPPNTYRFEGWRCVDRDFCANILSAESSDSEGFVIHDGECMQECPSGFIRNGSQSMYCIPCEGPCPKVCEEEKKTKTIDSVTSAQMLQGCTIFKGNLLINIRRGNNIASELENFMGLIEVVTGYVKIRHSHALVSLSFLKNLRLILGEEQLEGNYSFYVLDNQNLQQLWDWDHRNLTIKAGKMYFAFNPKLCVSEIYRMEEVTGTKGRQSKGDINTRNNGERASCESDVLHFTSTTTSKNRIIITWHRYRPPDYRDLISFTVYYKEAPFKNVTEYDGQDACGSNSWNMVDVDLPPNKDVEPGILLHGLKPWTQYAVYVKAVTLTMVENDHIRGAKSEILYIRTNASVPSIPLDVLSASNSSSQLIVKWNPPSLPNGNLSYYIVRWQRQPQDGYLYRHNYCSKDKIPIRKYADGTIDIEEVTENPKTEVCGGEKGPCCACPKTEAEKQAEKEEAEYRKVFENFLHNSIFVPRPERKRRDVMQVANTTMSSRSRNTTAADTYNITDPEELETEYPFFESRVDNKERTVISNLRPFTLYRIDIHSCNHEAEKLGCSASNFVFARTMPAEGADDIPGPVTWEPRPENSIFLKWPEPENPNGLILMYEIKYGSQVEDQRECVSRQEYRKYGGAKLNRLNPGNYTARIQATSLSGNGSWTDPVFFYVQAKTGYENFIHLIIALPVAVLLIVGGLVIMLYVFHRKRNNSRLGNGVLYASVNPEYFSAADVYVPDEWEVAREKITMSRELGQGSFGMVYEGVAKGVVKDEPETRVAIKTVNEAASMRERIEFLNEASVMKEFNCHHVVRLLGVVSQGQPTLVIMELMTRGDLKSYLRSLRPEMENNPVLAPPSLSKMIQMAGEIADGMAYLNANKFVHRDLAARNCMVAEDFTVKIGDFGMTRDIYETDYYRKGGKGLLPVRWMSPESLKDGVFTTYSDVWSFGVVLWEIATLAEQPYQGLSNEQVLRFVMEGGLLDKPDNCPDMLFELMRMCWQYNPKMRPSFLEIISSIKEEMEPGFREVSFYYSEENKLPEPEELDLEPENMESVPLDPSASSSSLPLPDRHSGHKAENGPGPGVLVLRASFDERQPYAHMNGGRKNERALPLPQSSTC

| SMILES | IC50 [1] [nM] | IC50 [2] [nM] | IC50 [3] [nM] |
| --- | --- | --- | --- |
| Cc1cccc(Nc2nc3nonc3nc2NN=Cc2ccc(-c3ccc(Cl)c(C(=O)O)c3)o2)c1C [Example 2] | < 1000 | < 2000 | < 1000 |
| Oc1c(Br)cc(Cl)cc1C=NNc1nc2nonc2nc1Nc1ccc(Cl)c(Cl)c1 [Example 14] | < 1000 | < 2000 | < 1000 |
| Fc1ccc(Nc2nc3nonc3nc2NN=Cc2ccc(-c3ccc(Cl)cc3Cl)o2)cc1 [Example 15, (6-{N′-[5-(2,4-Dichloro-phenyl)-furan-2-ylmethylene]-hydrazino}-[1,2,5]oxadiazolo [3,4-b]pyrazin-5-yl)-(4-fluoro-phenyl)-amine] |  | < 2000 | < 1000 |
| Cc1cc(C)c([N+](=O)[O-])cc1-c1ccc(C=NNc2nc3nonc3nc2Nc2ccccc2F)o1 [Example 29, (6-{N′-[5-(2,4-Dimethyl-5-nitro-phenyl)-furan-2-ylmethylene]-hydrazino}-[1,2,5]oxadiazolo[3,4-b]pyrazin-5-yl)-(2-fluoro-phenyl)-amine] | < 1000 |  | < 1000 |
| Oc1c(Br)cc(Br)cc1C=NNc1nc2nonc2nc1Nc1ccc(Cl)cc1 [Example 30] | < 1000 |  | < 1000 |
| Cc1ccc(Nc2nc3nonc3nc2NN=Cc2ccc(-c3cc(C)cc([N+](=O)[O-])c3C)o2)cc1 [Example 33, (6-[N′-[5-(2,5-Dimethyl-3-nitro-phenyl)-furan-2-ylmethylene]-hydrazino}-[1,2,5]oxadiazolo[3,4-b]pyrazin-5-yl)-p-tolyl-amine] |  |  | < 1000 |
| Oc1c(I)cc(I)cc1C=NNc1nc2nonc2nc1Nc1cccc(Br)c1 [Example 35] | < 1000 | < 2000 | < 1000 |
| O=[N+]([O-])c1cc(-c2ccc(C=NNc3nc4nonc4nc3Nc3cccc(C(F)(F)F)c3)o2)ccc1Cl [Example 36, (6-{N-[5-(4-Chloro-3-nitro-phenyl)-furan-2-ylmethylene]-hydrazino}-[1,2,5]oxadiazolo [3,4-b]pyrazin-5-yl)-(3-trifluoromethyl-phenyl)-amine] | < 1000 |  | < 1000 |
| CCOC(=O)c1ccc(Nc2nc3nonc3nc2NN=Cc2cccc([N+](=O)[O-])c2O)cc1 [Example 37, 4-{6-[N′-(2-Hydroxy-3-nitro-benzylidene)-hydrazino]-[1,2,5]oxadiazolo[3,4-b]pyrazin-5-ylamino}-benzoic Acid Ethyl Ester] |  |  | < 1000 |
| O=[N+]([O-])c1ccc(-c2ccc(C=NNc3nc4nonc4nc3Nc3ccc(F)cc3)o2)cc1 [Example 39, (4-Fluoro-phenyl)-(6-{N′-[5-(4-nitro-phenyl)-furan-2-ylmethylene]-hydrazino}-[1,2,5]oxadiazolo[3,4-b]pyrazin-5-yl)-amine] | < 1000 |  | < 1000 |
| O=c1[nH]c2ccc(Nc3nc4nonc4nc3NN=Cc3cc(I)cc(I)c3OCc3ccc(Cl)cc3Cl)cc2[nH]1 [Example 55, 5-(6-{N′-[2-(2,4-Dichloro-benzyloxy)-3,5-diiodo-benzylidene]-hydrazino}-[1,2,5]oxadiazolo[3,4-b]pyrazin-5-ylamino)-1,3-dihydro-benzoimidazol-2-one] | < 1000 |  | < 1000 |
| C(=NNc1nc2nonc2nc1Nc1ccccc1)c1cc2ccccc2o1 [Example 88, [6-(N′-Benzofuran-2-ylmethylene-hydrazino)-(1,2,5]oxadiazolo[3,4-b]pyrazin-5-yl]-phenyl-amine] |  |  | < 1000 |
| O=[N+]([O-])c1cccc(-c2ccc(C=NNc3nc4nonc4nc3Nc3ccccc3)o2)c1 [Example 90, (6-{N′-[5-(3-Nitro-phenyl)-furan-2-ylmethylene]-hydrazino}-[1,2,5]oxadiazolo [3,4-b]pyrazin-5-yl)-phenyl-amine] |  |  | < 1000 |
| O=[N+]([O-])c1cccc(-c2ccc(C=NNc3nc4nonc4nc3Nc3ccc(F)cc3)o2)c1 [Example 135, (4-Fluoro-phenyl)-(6-{N′-[5-(3-nitro-phenyl)-furan-2-ylmethylene]-hydrazino}-[1,2,5]oxadiazolo [3,4-b]pyrazin-5-yl)-amine] | < 1000 |  | < 1000 |
| O=C(O)c1ccc(-c2ccc(C=NNc3nc4nonc4nc3Nc3ccc(F)cc3)o2)cc1 [Example 139] | < 1000 |  | < 1000 |
| O=C(O)c1ccc(C=NNc2nc3nonc3nc2Nc2cccc(Cl)c2)cc1 [Example 143] | < 1000 |  |  |
| Oc1c(Br)cc(Br)cc1C=NNc1nc2nonc2nc1Nc1cccc(Cl)c1 [Example 151] | < 1000 |  | < 1000 |
| COc1cc(Br)cc(C=NNc2nc3nonc3nc2Nc2cccc(Cl)c2)c1O [Example 152] | < 1000 | < 2000 | < 1000 |
| O=[N+]([O-])c1cccc(-c2ccc(C=NNc3nc4nonc4nc3Nc3cccc(Cl)c3)o2)c1 [Example 155, (3-Chloro-phenyl)-(6-{N′-[5-(3-nitro-phenyl)-furan-2-ylmethylene]-hydrazino}-[1,2,5]oxadiazolo[3,4-b]pyrazin-5-yl)-amine] | < 1000 | < 2000 | < 1000 |
| COc1ccc(O)c(C=NNc2nc3nonc3nc2Nc2ccc(F)c(Cl)c2)c1 [Example 167] |  |  | < 1000 |
| Fc1ccc(Nc2nc3nonc3nc2NN=Cc2cc3ccccc3o2)cc1Cl [Example 172, [6-(N′-Benzofuran-2-ylmethylene-hydrazino)-[1,2,5]oxadiazolo[3,4-b]pyrazin-5-yl]-(3-chloro-4-fluoro-phenyl)-amine] | < 1000 | < 2000 | < 1000 |
| O=[N+]([O-])c1cccc(-c2ccc(C=NNc3nc4nonc4nc3Nc3ccc(F)c(Cl)c3)o2)c1 [Example 174, (3-Chloro-4-fluoro-phenyl)-(6-{N′-[5-(3-nitro-phenyl)-furan-2-ylmethylene]-hydrazino}-[1,2,5]oxadiazolo[3,4-b]pyrazin-5-yl)-amine] | < 1000 | < 2000 | < 1000 |
| Fc1ccc(Nc2nc3nonc3nc2NN=Cc2ccc(-c3ccccc3)o2)cc1Cl [Example 175, (3-Chloro-4-fluoro-phenyl)-{6-[N′-(5-phenyl-furan-2-ylmethylene)-hydrazino]-[1,2,5]oxadiazolo [3,4-b]pyrazin-5-yl}-amine] | < 1000 |  | < 1000 |
| NC(=O)c1cccc(-c2ccc(C=NNc3nc4nonc4nc3Nc3ccc(F)c(Cl)c3)o2)c1 [Example 178] | < 1000 | < 2000 | < 1000 |
| O=C(O)c1ccc(-c2ccc(C=NNc3nc4nonc4nc3Nc3ccc(F)c(Cl)c3)o2)cc1 [Example 179] | < 1000 | < 2000 | < 1000 |
| COc1cccc(C=NNc2nc3nonc3nc2Nc2ccc(Cl)c(Cl)c2)c1O [Example 192] | < 1000 |  |  |
| Clc1ccc(Nc2nc3nonc3nc2NN=Cc2ccc(-c3ccccc3)o2)cc1Cl [Example 195, (3,4-Dichloro-phenyl)-{6-[N′-(5-phenyl-furan-2-ylmethylene)-hydrazino]-[1,2,5]oxadiazolo[3,4-b]pyrazin-5-yl}-amine] |  |  | < 1000 |
| Clc1ccc(Nc2nc3nonc3nc2NN=Cc2ccco2)cc1Cl [Example 197, (3,4-Dichloro-phenyl)-[6-(N′-furan-2-ylmethylene-hydrazino)-[1,2,5]-oxadiazolo[3,4-b]pyrazin-5-yl]-amine] | < 1000 |  | < 1000 |

Source: patent publication US20050143382A1 (4SC AG, priority 2003, published 2005)
